{"source": "patent US7704990B2", "about": "“Agents for preventing and treating disorders involving modulation of the RyR receptors” (The Trustees of Columbia University in the City of New York, priority 2005, dated 2010)", "key": {"soleus muscle": {"test_system": "soleus muscle", "test": "Soleus muscle fatigue time in mice with heart failure from myocardial infarction", "type": "in vivo, mouse", "description": "Soleus muscles from JTV519-treated wild-type mice or calstabin2^−/− mice with heart failure from myocardial infarction are more resistant to fatigue (P<0.05) compared to placebo-treated mice. After completion of treatment, soleus muscle was dissected and mounted in a tissue bath to assess isolated skeletal muscle function. Representative 50% of maximal tetanic force fatigue time tracings are shown for wild-type and calstabin2^−/− mice, treated with JTV519 or placebo, in embodiment A. In embodiment B are shown bar graph summarizing mean time to fatigue."}, "RyR1 / calstabin1": {"target": "T1, RyR1 / calstabin1 (Mus musculus, UniProt E9PZQ0)", "T1 construct": "increase of calstabin1 in the RyR1 complex in soleus muscles in vivo; from tissue; host or cells: soleus muscle of wild-type and calstabin2-/- mice with post-infarction heart failure", "test": "RyR1 PKA phosphorylation and calstabin1 bound to RyR1 in soleus muscle of heart failure mice", "type": "in vivo", "procedure": "Embodiment A are bar graphs of PKA phosphorylation of RyR1 at Ser-2844 in mice, which corresponds to Ser-2843 in humans.\nEquivalent amounts of RyR1 were immunoprecipitated with an antibody against RyR1. Embodiment A are bar graphs show the amount of PKA phosphorylation of RyR1 at Ser-2844 in mice (corresponding to human Ser-2843). […] Embodiment B are bar graphs showing the amount of calstabin1 bound to RyR1 from wild-type or calstabin2^−/− mice treated with JTV519 or placebo. Mice were treated with JTV519 by implantable osmotic minipumps using a dose of 0.5 mg/kg/day."}, "RyR1 [1]": {"target": "T2, RyR1 (Mus musculus, UniProt E9PZQ0)", "T2 construct": "single channel current trace of RyR1 from soleus muscle of control (wild-type) mouse; from tissue; host or cells: skeletal (soleus) muscle of mdx mice or of wild-type mice with heart failure", "test": "Single-channel recordings of RyR1 from soleus muscle of mdx mice", "type": "biochemical", "conditions": "1.0 μM JTV-519, cytoplasmic Ca2+ 150 nM, vs untreated wild-type", "description": "Embodiments A and B are, respectively, a single channel current trace and an amplitude histogram of RyR1 from soleus muscle of a control (wild-type) mouse under resting conditions. Embodiments C and D are, respectively, a single channel current trace and an amplitude histogram of RyR1 from soleus muscle of an mdx mouse.\nIn FIG. 11, channel openings are represented as upward deflections; ‘c’ indicates the closed state; and 4 pA current open amplitude is indicated by dash. Upper traces represent 5 secs and lower traces 500 ms; dotted lines indicate subconductance states.\nIncreased Po in mdx mice is consistent with intracellular Ca^2+ leak. The amplitude histograms in embodiments B, D, and F show multiple subconductance states consistent with calstabin1 (FKBP12) depletion in RyR1 from mdx soleus muscle."}, "[2]": {"target": "PKA phosphorylated RyR1 / calstabin1 (Homo sapiens, UniProt P21817)", "sequence (P21817 whole entry)": "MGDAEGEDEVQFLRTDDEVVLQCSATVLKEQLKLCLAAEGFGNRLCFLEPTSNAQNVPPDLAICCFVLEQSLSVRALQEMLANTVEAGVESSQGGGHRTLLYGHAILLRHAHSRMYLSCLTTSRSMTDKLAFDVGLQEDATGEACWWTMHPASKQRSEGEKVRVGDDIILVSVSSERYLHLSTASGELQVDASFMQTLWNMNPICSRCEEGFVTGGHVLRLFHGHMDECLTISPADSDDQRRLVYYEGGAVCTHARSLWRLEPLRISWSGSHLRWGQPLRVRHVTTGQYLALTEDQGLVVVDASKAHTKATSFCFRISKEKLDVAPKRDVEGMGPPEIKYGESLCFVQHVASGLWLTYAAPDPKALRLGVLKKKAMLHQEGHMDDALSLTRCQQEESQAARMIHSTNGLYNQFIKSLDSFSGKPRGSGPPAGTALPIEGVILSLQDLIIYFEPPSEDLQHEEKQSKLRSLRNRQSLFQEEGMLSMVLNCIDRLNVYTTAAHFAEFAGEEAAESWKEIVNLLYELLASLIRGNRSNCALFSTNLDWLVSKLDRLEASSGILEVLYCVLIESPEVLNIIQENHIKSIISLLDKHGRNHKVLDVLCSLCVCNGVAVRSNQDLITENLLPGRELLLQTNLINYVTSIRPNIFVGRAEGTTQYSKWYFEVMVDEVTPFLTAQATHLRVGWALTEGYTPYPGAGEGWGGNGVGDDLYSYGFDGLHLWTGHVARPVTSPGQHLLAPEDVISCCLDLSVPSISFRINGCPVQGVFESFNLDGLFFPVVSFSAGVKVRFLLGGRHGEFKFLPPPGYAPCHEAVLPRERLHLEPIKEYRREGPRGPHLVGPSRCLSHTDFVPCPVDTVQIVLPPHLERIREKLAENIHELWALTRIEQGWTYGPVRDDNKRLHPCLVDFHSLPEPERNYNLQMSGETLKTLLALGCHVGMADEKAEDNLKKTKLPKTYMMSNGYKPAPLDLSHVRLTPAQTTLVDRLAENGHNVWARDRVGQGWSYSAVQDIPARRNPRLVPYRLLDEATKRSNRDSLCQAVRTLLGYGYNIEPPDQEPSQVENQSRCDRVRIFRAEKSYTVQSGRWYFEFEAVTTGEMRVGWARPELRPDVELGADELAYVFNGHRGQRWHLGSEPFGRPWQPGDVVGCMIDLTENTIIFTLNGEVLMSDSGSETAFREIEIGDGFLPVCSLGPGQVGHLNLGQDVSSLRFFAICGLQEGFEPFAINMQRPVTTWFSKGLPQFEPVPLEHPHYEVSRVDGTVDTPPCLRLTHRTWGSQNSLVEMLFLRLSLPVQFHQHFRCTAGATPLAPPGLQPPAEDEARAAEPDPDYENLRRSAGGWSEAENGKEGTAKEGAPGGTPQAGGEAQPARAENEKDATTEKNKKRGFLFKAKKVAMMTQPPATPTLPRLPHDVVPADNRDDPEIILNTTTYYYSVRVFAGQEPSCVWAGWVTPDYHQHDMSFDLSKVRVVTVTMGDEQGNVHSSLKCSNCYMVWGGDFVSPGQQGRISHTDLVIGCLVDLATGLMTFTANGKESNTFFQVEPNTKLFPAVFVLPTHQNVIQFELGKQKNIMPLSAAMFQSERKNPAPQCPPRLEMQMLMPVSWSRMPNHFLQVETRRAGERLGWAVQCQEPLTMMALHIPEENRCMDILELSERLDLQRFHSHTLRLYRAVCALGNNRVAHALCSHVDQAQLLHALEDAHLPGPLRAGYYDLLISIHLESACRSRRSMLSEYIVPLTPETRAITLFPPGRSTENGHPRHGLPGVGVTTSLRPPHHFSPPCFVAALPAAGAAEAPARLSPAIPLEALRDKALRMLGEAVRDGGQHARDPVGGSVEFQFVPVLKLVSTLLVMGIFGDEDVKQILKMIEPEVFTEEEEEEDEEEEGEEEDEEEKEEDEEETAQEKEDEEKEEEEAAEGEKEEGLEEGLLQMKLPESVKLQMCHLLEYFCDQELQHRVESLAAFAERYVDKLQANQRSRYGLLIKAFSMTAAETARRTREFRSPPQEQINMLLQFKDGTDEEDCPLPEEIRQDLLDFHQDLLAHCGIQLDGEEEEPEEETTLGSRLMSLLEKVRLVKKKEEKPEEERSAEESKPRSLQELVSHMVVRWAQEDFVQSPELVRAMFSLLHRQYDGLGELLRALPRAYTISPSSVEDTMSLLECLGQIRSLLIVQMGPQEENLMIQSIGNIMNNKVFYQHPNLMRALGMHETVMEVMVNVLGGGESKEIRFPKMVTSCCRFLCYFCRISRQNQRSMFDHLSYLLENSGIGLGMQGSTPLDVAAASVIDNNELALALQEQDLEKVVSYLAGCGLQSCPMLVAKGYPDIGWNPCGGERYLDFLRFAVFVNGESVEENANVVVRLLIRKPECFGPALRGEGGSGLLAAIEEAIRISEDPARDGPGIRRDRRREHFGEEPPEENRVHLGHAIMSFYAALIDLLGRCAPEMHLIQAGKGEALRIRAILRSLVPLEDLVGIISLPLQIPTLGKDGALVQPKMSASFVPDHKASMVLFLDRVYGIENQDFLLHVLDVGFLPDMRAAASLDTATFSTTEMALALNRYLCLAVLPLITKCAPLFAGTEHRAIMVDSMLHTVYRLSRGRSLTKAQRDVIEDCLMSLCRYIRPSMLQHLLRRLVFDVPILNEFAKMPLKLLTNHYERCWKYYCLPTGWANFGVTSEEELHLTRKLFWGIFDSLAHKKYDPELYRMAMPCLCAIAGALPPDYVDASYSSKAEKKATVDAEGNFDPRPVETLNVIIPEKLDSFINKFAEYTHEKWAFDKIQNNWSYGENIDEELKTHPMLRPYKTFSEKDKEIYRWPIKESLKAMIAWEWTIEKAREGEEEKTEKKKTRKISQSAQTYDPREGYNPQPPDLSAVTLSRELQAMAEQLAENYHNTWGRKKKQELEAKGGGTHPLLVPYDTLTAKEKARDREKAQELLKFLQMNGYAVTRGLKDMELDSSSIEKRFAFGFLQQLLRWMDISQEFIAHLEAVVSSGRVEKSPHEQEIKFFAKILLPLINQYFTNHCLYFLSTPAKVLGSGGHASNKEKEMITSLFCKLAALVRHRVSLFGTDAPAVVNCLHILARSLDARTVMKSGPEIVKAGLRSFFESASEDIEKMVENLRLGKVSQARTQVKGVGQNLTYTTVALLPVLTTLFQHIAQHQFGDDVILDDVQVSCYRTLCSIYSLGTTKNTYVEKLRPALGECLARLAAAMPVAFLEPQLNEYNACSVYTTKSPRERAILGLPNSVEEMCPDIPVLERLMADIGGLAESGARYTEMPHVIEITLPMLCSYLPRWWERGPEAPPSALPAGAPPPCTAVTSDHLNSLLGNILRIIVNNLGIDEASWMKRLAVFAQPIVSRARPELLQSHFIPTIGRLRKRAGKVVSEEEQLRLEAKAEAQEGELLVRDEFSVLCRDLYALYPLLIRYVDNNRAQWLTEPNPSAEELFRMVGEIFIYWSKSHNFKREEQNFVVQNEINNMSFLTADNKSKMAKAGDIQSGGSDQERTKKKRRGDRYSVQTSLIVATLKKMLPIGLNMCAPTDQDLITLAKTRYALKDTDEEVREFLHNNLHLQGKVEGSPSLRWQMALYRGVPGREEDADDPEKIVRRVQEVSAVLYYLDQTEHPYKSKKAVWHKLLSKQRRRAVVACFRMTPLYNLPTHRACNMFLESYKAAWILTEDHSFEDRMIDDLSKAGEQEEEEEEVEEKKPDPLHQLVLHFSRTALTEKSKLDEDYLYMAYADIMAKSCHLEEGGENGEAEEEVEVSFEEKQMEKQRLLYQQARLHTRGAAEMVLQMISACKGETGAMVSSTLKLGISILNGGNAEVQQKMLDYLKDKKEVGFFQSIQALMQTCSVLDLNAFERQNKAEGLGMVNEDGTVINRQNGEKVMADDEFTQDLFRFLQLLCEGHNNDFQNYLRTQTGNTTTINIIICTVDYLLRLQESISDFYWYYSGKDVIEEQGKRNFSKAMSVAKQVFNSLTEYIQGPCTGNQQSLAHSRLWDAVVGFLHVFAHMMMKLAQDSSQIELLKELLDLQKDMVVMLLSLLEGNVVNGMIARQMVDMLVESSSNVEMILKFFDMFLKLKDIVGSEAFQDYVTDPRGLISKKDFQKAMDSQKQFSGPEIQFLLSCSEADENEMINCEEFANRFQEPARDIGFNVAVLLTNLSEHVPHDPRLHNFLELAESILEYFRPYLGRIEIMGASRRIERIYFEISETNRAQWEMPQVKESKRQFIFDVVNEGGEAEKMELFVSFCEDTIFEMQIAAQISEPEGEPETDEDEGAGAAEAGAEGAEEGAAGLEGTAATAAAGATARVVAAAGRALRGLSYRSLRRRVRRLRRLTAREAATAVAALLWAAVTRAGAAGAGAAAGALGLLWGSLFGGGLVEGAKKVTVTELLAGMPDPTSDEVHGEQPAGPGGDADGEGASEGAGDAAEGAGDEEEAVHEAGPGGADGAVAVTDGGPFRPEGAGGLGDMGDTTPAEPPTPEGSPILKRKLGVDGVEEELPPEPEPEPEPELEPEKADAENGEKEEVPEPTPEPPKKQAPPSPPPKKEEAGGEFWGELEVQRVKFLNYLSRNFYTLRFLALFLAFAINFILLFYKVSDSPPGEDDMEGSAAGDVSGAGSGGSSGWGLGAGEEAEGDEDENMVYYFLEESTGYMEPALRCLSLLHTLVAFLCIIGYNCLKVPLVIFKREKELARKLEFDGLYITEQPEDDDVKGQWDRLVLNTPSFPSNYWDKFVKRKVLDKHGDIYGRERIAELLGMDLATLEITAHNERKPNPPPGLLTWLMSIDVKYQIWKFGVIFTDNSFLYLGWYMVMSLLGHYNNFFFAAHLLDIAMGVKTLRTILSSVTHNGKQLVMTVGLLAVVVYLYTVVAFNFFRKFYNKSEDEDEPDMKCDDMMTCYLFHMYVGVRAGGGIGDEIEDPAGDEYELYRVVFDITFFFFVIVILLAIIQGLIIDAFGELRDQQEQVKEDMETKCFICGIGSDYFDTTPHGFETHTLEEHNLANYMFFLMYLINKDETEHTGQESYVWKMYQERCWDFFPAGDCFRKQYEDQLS", "sequence (P62942 2-108 partner limits assumed)": "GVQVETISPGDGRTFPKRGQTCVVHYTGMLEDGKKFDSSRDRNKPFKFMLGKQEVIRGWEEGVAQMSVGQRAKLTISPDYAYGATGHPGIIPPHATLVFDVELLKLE", "test": "Calstabin1 binding to immunoprecipitated PKA phosphorylated skeletal RyR1 at increasing JTV519 concentrations", "description": "Sediment represents only calstabin bound to RyR."}, "RyR1 [3]": {"target": "T2, RyR1", "test": "RyR1 single-channel tracings from skeletal muscle of heart failure mice treated in vivo", "conditions": "mice with heart failure and increased muscle fatigue, 150 nM cytoplasmic Ca2+", "description": "Embodiments A and C are single channel current traces of wild-type mice with heart failure treated with placebo (A) and JTV-519 (C). Embodiments B and D are amplitude histograms for wild-type mice with heart failure treated with placebo (B) and JTV-519 (D).\nFor the amplitude histograms in embodiment B and D, amplitude is represented on the x axis, and events indicates the number of channel openings. Po, To and Tc values correspond to the representative traces. Treatment as indicated on top of traces."}}}
{"smiles": "COc1ccc2c(c1)CN(C(=O)CCN1CCC(Cc3ccccc3)CC1)CCS2.Cl", "note": "[JTV-519, 4-[3-(4-benzylpiperidin-1-yl)propionyl]-7-methoxy-2,3,4,5-tetrahydro-1,4-benzothiazepine monohydrochloride]", "values": [{"measurement": "soleus muscle fatigue times", "setting": "soleus muscle; calstabin2-/- knockout mice with heart failure", "value": "significantly improved"}, {"measurement": "soleus muscle fatigue times", "setting": "soleus muscle; wild-type mice with heart failure, vs placebo", "value": "improved soleus muscle fatigue times"}, {"measurement": "calstabin1 in the RyR1 complex in soleus muscle", "setting": "RyR1 / calstabin1; wild-type and calstabin2-/- mice, implantable osmotic minipumps, 0.5 mg/kg/day", "value": "highly significant increase"}, {"measurement": "RyR1 PKA phosphorylation at Ser-2844", "setting": "RyR1 / calstabin1; wild-type animals", "value": "significant decrease"}, {"measurement": "RyR1 channel activity", "setting": "RyR1 [1]", "value": "normal activity"}, {"measurement": "resting heart rate or other ECG parameters", "setting": "FKBP12.6+/- mice; 0.5 mg/kg per hour for 7 days, implanted osmotic mini-pump", "value": "no effect"}, {"measurement": "plasma levels that prevent cardiac arrhythmias and sudden cardiac death", "setting": "FKBP12.6+/- mice; FKBP12.6+/- mice, exercise testing and 0.5 mg/kg epinephrine", "value": 1, "unit": "µM"}, {"measurement": "exercise-induced ventricular arrhythmias", "setting": "FKBP12.6+/- mice; haploinsufficient calstabin (FKBP12.6)+/- mice", "value": "prevention"}, {"measurement": "binding affinity of calstabin1 for PKA phosphorylated RyR1", "setting": "[2]; relative to non-PKA phosphorylated RyR1", "value": "restored"}, {"measurement": "concentration that increased the binding affinity of calstabin for RyR", "setting": "[2]; skeletal RyR1 with calstabin1, immunoblotting", "value": "≥ 50", "unit": "nM"}, {"measurement": "RyR1 channel gating in skeletal muscle", "setting": "RyR1 [3]", "value": "normalized"}]}
